# According to US6495604B1, “Cycloalkene derivatives, process for producing the same, and use” (Takeda Chemical Industries, Ltd., priority 1998, dated 2002):
# Tested on: NO production by RAW264.7 cell
# Assay: NO production-inhibiting effect in RAW264.7 cells (nitrite ion by DAN fluorescence)
# Format: cell-based, mouse
# Settings: Mus musculus, RAW264.7, RAW264.7; LPS 5 ng/ml + interferon gamma 1 U/ml; nitrite ion in culture supernatant after overnight incubation
# Experimental: Mouse macrophage cell line RAW264.7 was used as an iNOS-inducible cell and a test compound was examined for its % inhibition of NO production. The test compound was dissolved at 10 mM in N,N-dimethylformamide and diluted with an RPMI-1640 medium at the concentration of 0.1 mM. The concentration was further adjusted using the medium so that a final concentration ranging from 10 μM to 10 nM could be obtained by a 10-fold serial dilution and the test compound was added to a culture medium. On the day before the experiment, the cell was adjusted at 5×10^5/ml in an RPMI-1640 medium supplemented with 10% inactivated fetal calf serum and inoculated to a 96-well microplate at 1×10^5 cells/0.2 ml per well. After incubating at 37° C. under an atmosphere of 5% CO2/95% air overnight, the test compound adjusted as described above was added and then LPS and interferon gamma were added at the final concentrations of 5 ng/ml and 1 U/ml, respectively. After further incubating overnight, culture supernatants were examined for the concentration of nitrite ion (stable metabolite of NO) which was used as an index for the NO production. The nitrite ion concentration was determined by adding 25 μl of 20 μg/ml of 2,3-diaminonaphthalene (DAN) to 50 μl of the culture supernatant, followed by incubating at room temperature for 10 minutes, followed by adding 25 μl of 0.5 N NaOH, followed by determining a fluorescence at 450 nm (excitation wavelength: 365 nm). An IC50 represents the concentration of the test compound which inhibits 50% of the NO production.
row,IC50 [µM],Compound
1,3.8,"CCOC(=O)C1=CCCCC1S(=O)(=O)Nc1ccc(-n2cnnn2)cc1 (stereo not drawn) [Compound 48, ethyl 6-[N-[4-(1H-tetrazol-1-yl)phenyl)sulfamoyl]-1-cyclohexene-1-carboxylate]"
2,0.25,"CCOC(=O)C1=CCCCC1S(=O)(=O)Nc1ccc(C)cc1F (stereo not drawn) [Compound 27, ethyl 6-[N-(2-fluoro-4-methylphenyl)sulfamoyl]-1-cyclohexene-1-carboxylate]"
3,1.1,"CCOC(=O)C1=CCCCC1S(=O)(=O)Nc1ccccc1OC(F)(F)F (stereo not drawn) [Compound 42, ethyl 6-[N-(2-trifluoromethoxyphenyl)sulfamoyl]-1-cyclohexene-1-carboxylate]"
4,3.3,"CCOC(=O)C1=CCCCC1S(=O)(=O)Nc1ccc(C#N)cc1Cl (stereo not drawn) [Compound 55, ethyl 6-[N-(2-chloro-4-cyanophenyl)sulfamoyl]-1-cyclohexene-1-carboxylate]"
5,4,"CCOC(=O)C1=CCCCC1S(=O)(=O)Nc1ccc(C(=O)OC)cc1 (stereo not drawn) [Compound 51, ethyl 6-(N-(4-methoxycarbonylphenyl)sulfamoyl]-1-cyclohexene-1-carboxylate]"
6,0.18,"COC(=O)C1=CCCCC1S(=O)(=O)Nc1ccc(F)cc1F (stereo not drawn) [Compound 22, methyl 6-[N-(2,4-difluorophenyl)sulfamoyl]-1-cyclohexene-1-carboxylate]"
7,0.027,"CCOC(=O)C1=CCCCC1S(=O)(=O)Nc1ccc(C)cc1Cl (stereo not drawn) [Compound 45, ethyl 6-[N-(2-chloro-4-methylphenyl)sulfamoyl]-1-cyclohexene-1-carboxylate]"
8,4,"CCOC(=O)C1=C(S(=O)(=O)Nc2ccccc2)CCCC1 [Compound 7, ethyl 2-(N-phenylsulfamoyl)-1-cyclohexene-1-carboxylate]"
9,0.18,"CCOC(=O)C1=CCCCC1S(=O)(=O)Nc1ccc(F)cc1 (stereo not drawn) [Compound 12, ethyl 6-[N-(4-fluorophenyl)sulfamoyl)-1-cyclohexene-1-carboxylate]"
10,6.8,"O=C1C2=C(CCCC2)S(=O)(=O)N1c1ccc(OCC(F)(F)C(F)(F)F)cc1 [Compound 69, 2-[4-(2,2,3,3,3-pentafluoropropoxy)phenyl]-4,5,6,7-tetrahydro-1,2-benzisothiazol-3(2H)-one 1,1-dioxide]"
11,0.18,"CCOC(=O)C1=CCCCC1S(=O)(=O)Nc1ccc(F)c(F)c1 (stereo not drawn) [Compound 16, ethyl 6-[N-(3,4-difluorophenyl)sulfamoyl]-1-cyclohexene-1-carboxylate]"
12,0.46,"CCOC(=O)C1=CCCCC1S(=O)(=O)Nc1c(F)cccc1F (stereo not drawn) [Compound 13, ethyl 6-[N-(2,6-difluorophenyl)sulfamoyl]-1-cyclohexene-1-carboxylate]"
13,4.4,"CCOC(=O)C1=C(S(=O)(=O)Nc2ccc(F)cc2)CCCC1 [Compound 18, ethyl 2-[N-(4-fluorophenyl)sulfamoyl)-1-cyclohexene-1-carboxylate]"
14,2.6,"CCOC(=O)C1=CCCCC1S(=O)(=O)Nc1cc(F)cc(F)c1 (stereo not drawn) [Compound 17, ethyl 6-[N-(3,5-difluorophenyl)sulfamoyl]-1-cyclohexene-1-carboxylate]"

# The next lines start with the compound.
row,Compound,IC50 [µM]
1,"CCOC(=O)C1=CCCCC1S(=O)(=O)Nc1ccc(-n2ccnn2)cc1 (stereo not drawn) [Compound 49, ethyl 6-[N-[4-(1H-1,2,3-triazol-1-yl)phenyl)sulfamoyl]-1-cyclohexene-1-carboxylate]",5.6
2,"CCOC(=O)C1=CCCCC1S(=O)(=O)Nc1ccccc1C(=O)OC (stereo not drawn) [Compound 26, ethyl 6-[N-(2-methoxycarbonylphenyl)sulfamoyl]-1-cyclohexene-1-carboxylate]",3.3
3,"CC(C)COC(=O)C1=CCCCC1S(=O)(=O)Nc1ccc(F)cc1F (stereo not drawn) [Compound 32, isobutyl 6-[N-(2,4-difluorophenyl)sulfamoyl]-1-cyclohexene-1-carboxylate]",0.23
4,"CCOC(=O)C1=CCCCC1S(=O)(=O)Nc1ccc(F)cc1C (stereo not drawn) [Compound 46, ethyl 6-[N-(4-fluoro-2-methylphenyl)sulfamoyl]-1-cyclohexene-1-carboxylate]",0.054
5,"CCOC(=O)C1=CCCC1S(=O)(=O)Nc1ccc(F)cc1F (stereo not drawn) [Compound 58, ethyl 5-[N-(2,4-difluorophenyl)sulfamoyl]-1-cyclopentene-1-carboxylate]",0.39
6,"CCOC(=O)C1=C(S(=O)(=O)Nc2ccc(F)cc2F)CCC1 [Compound 66, ethyl 2-[N-(2,4-difluorophenyl)sulfamoyl]-1-cyclopentene-1-carboxylate]",8.1
7,"CC(C)OC(=O)C1=CCCCC1S(=O)(=O)Nc1ccc(F)cc1F (stereo not drawn) [Compound 25, isopropyl 6-[N-(2,4-difluorophenyl)sulfamoyl]-1-cyclohexene-1-carboxylate]",0.32
8,"CCOC(=O)C1=CCCCC1S(=O)(=O)Nc1ccc(C(=O)OC)cc1Cl (stereo not drawn) [Compound 54, ethyl 6-[N-(2-chloro-4-methoxycarbonylphenyl)sulfamoyl]-1-cyclohexene-1-carboxylate]",2.3
9,"CCOC(=O)C1=CCCCCC1S(=O)(=O)Nc1ccc(F)cc1Cl (stereo not drawn) [Compound 65, ethyl 7-[N-(2-chloro-4-fluorophenyl)sulfamoyl]-1-cycloheptene-1-carboxylate]",0.32
10,"CCOC(=O)C1=CCCCC1S(=O)(=O)Nc1ccc(C(=O)NCC(=O)OC(C)(C)C)cc1Cl (stereo not drawn) [Compound 62, ethyl 6-[N-[2-chloro-4-(N-t-butoxycarbonylmethylcarbamoyl)phenyl]sulfamoyl]-1-cyclohexene-1-carboxylate]",3.8
11,"CCOC(=O)C1=CCCCC1S(=O)(=O)Nc1ccc(-n2ncnn2)cc1 (stereo not drawn) [Compound 44, ethyl 6-[N-[4-(2H-tetrazol-2-yl)phenyl)sulfamoyl]-1-cyclohexene-1-carboxylate]",3.7
12,"CCOC(=O)C1=CCCCC1S(=O)(=O)Nc1ccccc1Cl (stereo not drawn) [Compound 28, ethyl 6-[N-(2-chlorophenyl)sulfamoyl]-1-cyclohexene-1-carboxylate]",0.029
13,"CCCCOC(=O)C1=CCCCC1S(=O)(=O)Nc1ccc(F)cc1F (stereo not drawn) [Compound 33, butyl 6-[N-(2,4-difluorophenyl)sulfamoyl]-1-cyclohexene-1-carboxylate]",0.26
14,"CCOC(=O)C1=CCCCC1S(=O)(=O)Nc1ccc(F)c(F)c1F (stereo not drawn) [Compound 31, ethyl 6-[N-(2,3,4-trifluorophenyl)sulfamoyl]-1-cyclohexene-1-carboxylate]",0.23

# Same assay, conditions: Mus musculus; RAW264.7; LPS 5 ng/ml + interferon gamma 1 U/ml; nitrite ion in culture supernatant after overnight incubation
row,Compound,IC50 [µM]
1,"CCOC(=O)C1=CCCCC1S(=O)(=O)Nc1ccccc1CC (stereo not drawn) [Compound 39, ethyl 6-[N-(2-ethylphenyl)sulfamoyl]-1-cyclohexene-1-carboxylate]",0.32
2,"CCOC(=O)C1=CCCCC1S(=O)(=O)Nc1ccc(Cl)cc1 (stereo not drawn) [Compound 30, ethyl 6-[N-(4-chlorophenyl)sulfamoyl]-1-cyclohexene-1-carboxylate]",0.54
3,"CCOC(=O)C1=CCCCC1S(=O)(=O)Nc1ccc([N+](=O)[O-])cc1 (stereo not drawn) [Compound 5, ethyl 6-[N-(4-nitrophenyl)sulfamoyl]-1-cyclohexene-1-carboxylate]",3.7

# Same assay, conditions: RAW264.7; LPS 5 ng/ml + interferon gamma 1 U/ml; nitrite ion in culture supernatant after overnight incubation
row,Compound,IC50 [µM]
1,"CCOC(=O)C1=CCCCC1S(=O)(=O)Nc1ccc(-n2cncn2)cc1F (stereo not drawn) [Compound 57, ethyl 6-[N-[2-fluoro-4-(IH-1,2,4-triazol-1-yl)phenyl)sulfamoyl]-1-cyclohexene-1-carboxylate]",4.6
2,ethyl 6-[N-3-fluorophenyl]sulfamoyl)-1-cyclohexene-1-carboxylate [Compound 11],0.31
